Test results: PubChem BioAssay AID248 (DTP/NCI, 2004)
Where “and” joins values, the source holds several entries; their conditions need not be identical. Equal entries are not always repeated. Inconclusive results and toxic doses are left out. Cut-off read from the data, not from the text of the source: active = T/C of 150% or more; inactive = T/C below 125%.

Tested on: L1210 leukemia ip in BDF1 mice, survival T/C
Experiment: NCI In Vivo Anticancer Drug Screen. Data for tumor model L1210 Leukemia (intraperitoneal) in B6D2F1 (BDF1) mice
Settings: endpoint: mean survival time, higher = longer survival
Procedure, shortened: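 Transplantable tumor model; survival measured in treated vs vehicle control mice. Value = treated/control.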

[1] = dose: 37.5 mg/kg/injection, schedule: Q01DX009 (ip), vehicle: Klucel (hydroxypropylcellulose) (HPC)
[2] = dose: 75.0 mg/kg/injection, schedule: Q01DX009 (ip), vehicle: Klucel (hydroxypropylcellulose) (HPC)
[3] = dose: 50.0 mg/kg/injection, schedule: Q01DX001 (ip), vehicle: Klucel (hydroxypropylcellulose) (HPC)
[4] = dose: 100.0 mg/kg/injection, schedule: Q01DX001 (ip), vehicle: Klucel (hydroxypropylcellulose) (HPC)
[5] = dose: 100.0 mg/kg/injection, schedule: Q01DX009 (ip), vehicle: Klucel (hydroxypropylcellulose) (HPC)
[6] = dose: 200.0 mg/kg/injection, schedule: Q01DX001 (ip), vehicle: Klucel (hydroxypropylcellulose) (HPC)
[7] = dose: 200.0 mg/kg/injection, schedule: Q01DX009 (ip), vehicle: Klucel (hydroxypropylcellulose) (HPC)
[8] = dose: 400.0 mg/kg/injection, schedule: Q01DX009 (ip), vehicle: Klucel (hydroxypropylcellulose) (HPC)
[9] = dose: 100.0 mg/kg/injection, schedule: Q04DX003 (ip), vehicle: saline with Tween-80
[10] = dose: 200.0 mg/kg/injection, schedule: Q04DX003 (ip), vehicle: saline with Tween-80
[11] = dose: 400.0 mg/kg/injection, schedule: Q04DX003 (ip), vehicle: saline with Tween-80
[12] = dose: 100.0 mg/kg/injection, schedule: Q04DX003 (ip), vehicle: Klucel (hydroxypropylcellulose) (HPC)
[13] = dose: 200.0 mg/kg/injection, schedule: Q04DX003 (ip), vehicle: Klucel (hydroxypropylcellulose) (HPC)
[14] = dose: 400.0 mg/kg/injection, schedule: Q04DX003 (ip), vehicle: Klucel (hydroxypropylcellulose) (HPC)

Measured: T/C

CC(=O)N(C)C(C(=O)N1CC(C)CC1C(=O)N(C)C1C(=O)NC(CC(C)C)C(=O)N2CC(C)CC2C(=O)NC(CC(C)C)C(=O)N(C)C(C(C)C)C(=O)N2CCCC2C(=O)N(C)C(CC(C)C)C(=O)NCC(=O)OC1C)C(C)C (stereo not drawn)
inactive: dose: 18.75 mg/kg/injection, schedule: Q01DX009 (ip), vehicle: Klucel (hydroxypropylcellulose) (HPC) 104 % of control | [1] 109 % of control | [2] 101 % of control

CCOC(=O)c1cnc(SC)nc1Nc1ccccc1[N+](=O)[O-]
inactive: dose: 25.0 mg/kg/injection, schedule: Q01DX001 (ip), vehicle: Klucel (hydroxypropylcellulose) (HPC) 96 % of control | [3] 96 % of control | [4] 100 % of control | [5] 94 % of control | [6] 88 % of control | [7] 94 % of control | dose: 400.0 mg/kg/injection, schedule: Q01DX001 (ip), vehicle: Klucel (hydroxypropylcellulose) (HPC) 88 % of control | [8] 89 % of control

O=C1c2ccccc2C(=O)N1CCCN1C(=O)c2ccccc2C1=O
inactive: dose: 100.0 mg/kg/injection, schedule: Q01DX001 (ip), vehicle: saline with Tween-80 111 % of control | dose: 100.0 mg/kg/injection, schedule: Q04DX002 (ip), vehicle: gum acacia 104 % of control | dose: 200.0 mg/kg/injection, schedule: Q01DX001 (ip), vehicle: saline with Tween-80 102 % of control | dose: 200.0 mg/kg/injection, schedule: Q04DX002 (ip), vehicle: gum acacia 96 % of control | dose: 400.0 mg/kg/injection, schedule: Q01DX001 (ip), vehicle: saline with Tween-80 100 % of control | dose: 400.0 mg/kg/injection, schedule: Q04DX002 (ip), vehicle: gum acacia 93 % of control

Clc1ncc(Br)c(Cl)n1
inactive: dose: 6.25 mg/kg/injection, schedule: Q01DX009 (ip), vehicle: Klucel (hydroxypropylcellulose) (HPC) 102 % of control | dose: 12.5 mg/kg/injection, schedule: Q01DX009 (ip), vehicle: Klucel (hydroxypropylcellulose) (HPC) 102 % of control | dose: 25.0 mg/kg/injection, schedule: Q01DX009 (ip), vehicle: Klucel (hydroxypropylcellulose) (HPC) 101 % of control | dose: 100.0 mg/kg/injection, schedule: Q04DX003 (ip), vehicle: other 119 % of control | dose: 200.0 mg/kg/injection, schedule: Q04DX003 (ip), vehicle: other 90 % of control

O=C(c1cccs1)c1cccs1
inactive: dose: 50.0 mg/kg/injection, schedule: Q01DX009 (ip), vehicle: saline with Tween-80 98 % of control | dose: 100.0 mg/kg/injection, schedule: Q01DX009 (ip), vehicle: saline with Tween-80 100 % of control | [9] 102 % of control | dose: 200.0 mg/kg/injection, schedule: Q01DX009 (ip), vehicle: saline with Tween-80 94 % of control | [10] 107 % of control | dose: 400.0 mg/kg/injection, schedule: Q01DX009 (ip), vehicle: saline with Tween-80 96 % of control | [11] 101 % of control

CC(=O)NC1CCC(Br)CC1 (stereo not drawn)
inactive: dose: 50.0 mg/kg/injection, schedule: Q01DX009 (ip), vehicle: Klucel (hydroxypropylcellulose) (HPC) 94 % of control | [5] 105 % of control | [7] 102 % of control

O=C(CCc1ccc(N(CCCl)CCCl)cc1)NC1CCCC1
inactive: [12] 116 % of control | [13] 115 % of control | [14] 115 % of control

CNC(=O)c1cnc(SC)nc1N
inactive: dose: 50.0 mg/kg/injection, schedule: Q04DX003 (ip), vehicle: Klucel (hydroxypropylcellulose) (HPC) 103 % of control | [4] 103 % of control | [12] 101 % of control | [6] 100 % of control | [13] 111 % of control

COC1OC2COC(c3ccccc3)OC2C(OC)C1O (stereo not drawn)
inactive: dose: 12.5 mg/kg/injection, schedule: Q04DX002 (ip), vehicle: Klucel (hydroxypropylcellulose) (HPC) 103 % of control | dose: 25.0 mg/kg/injection, schedule: Q04DX002 (ip), vehicle: Klucel (hydroxypropylcellulose) (HPC) 100 % of control | dose: 50.0 mg/kg/injection, schedule: Q04DX002 (ip), vehicle: Klucel (hydroxypropylcellulose) (HPC) 100 % of control

OC1(c2ccccc2)CCN(C/C=C/c2ccccc2Cl)CC1
inactive: [9] 92 % of control | [10] 93 % of control | [11] 90 % of control

c1ccc(C(c2ccccc2)[Si](c2ccccc2)(C(c2ccccc2)c2ccccc2)C(c2ccccc2)c2ccccc2)cc1
inactive: dose: 25.6 mg/kg/injection, schedule: Q04DX002 (ip), vehicle: saline with Tween-80 96 % of control | [1] 93 % of control | dose: 64.0 mg/kg/injection, schedule: Q04DX002 (ip), vehicle: saline with Tween-80 100 % of control | [2] 88 % of control | [9] 94 % of control | dose: 160.0 mg/kg/injection, schedule: Q04DX002 (ip), vehicle: saline with Tween-80 93 % of control | [10] 100 % of control | dose: 400.0 mg/kg/injection, schedule: Q04DX002 (ip), vehicle: saline with Tween-80 104 % of control | [11] 94 % of control

CC1(C)C2(c3ccccc3)C3C=CC3C12c1ccccc1 (stereo not drawn)
inactive: dose: 100.0 mg/kg/injection, schedule: Q04DX002 (ip), vehicle: Klucel (hydroxypropylcellulose) (HPC) 109 % of control | dose: 200.0 mg/kg/injection, schedule: Q04DX002 (ip), vehicle: Klucel (hydroxypropylcellulose) (HPC) 112 % of control | dose: 400.0 mg/kg/injection, schedule: Q04DX002 (ip), vehicle: Klucel (hydroxypropylcellulose) (HPC) 102 % of control

CC(=O)c1ccc(Nc2ccnc3cc(Cl)ccc23)cc1
inactive: dose: 75.0 mg/kg/injection, schedule: Q01DX001 (ip), vehicle: other 109 % of control | dose: 150.0 mg/kg/injection, schedule: Q01DX001 (ip), vehicle: other 96 % of control | dose: 300.0 mg/kg/injection, schedule: Q01DX001 (ip), vehicle: other 91 % of control

COc1ccc(-n2c(=O)c(N=Nc3ccccc3OC)c(O)n(-c3ccc(C)cc3)c2=S)cc1
inactive: [3] 92 % of control | [4] 89 % of control | [6] 91 % of control

CCOP(=O)(Nc1ccc2c(c1)Cc1cc(Cl)ccc1-2)OCC
inactive: dose: 50.0 mg/kg/injection, schedule: Q01DX001 (ip), vehicle: carboxymethylcellulose (CMC) 97 % of control | dose: 100.0 mg/kg/injection, schedule: Q01DX001 (ip), vehicle: carboxymethylcellulose (CMC) 105 % of control | dose: 200.0 mg/kg/injection, schedule: Q01DX001 (ip), vehicle: carboxymethylcellulose (CMC) 97 % of control | dose: 400.0 mg/kg/injection, schedule: Q01DX001 (ip), vehicle: carboxymethylcellulose (CMC) 92 % of control

C[P+](c1ccc(Cl)cc1)(c1ccc(Cl)cc1)c1ccc(Cl)cc1
inactive: dose: 6.25 mg/kg/injection, schedule: Q04DX003 (ip), vehicle: saline 114 % of control | dose: 12.5 mg/kg/injection, schedule: Q04DX003 (ip), vehicle: saline 109 % of control | dose: 25.0 mg/kg/injection, schedule: Q04DX003 (ip), vehicle: saline 102 % of control

CCOC(=O)c1cnc(C)nc1Nc1ccccc1Cl
inactive: dose: 50.0 mg/kg/injection, schedule: Q04DX003 (ip), vehicle: saline 105 % of control | dose: 100.0 mg/kg/injection, schedule: Q04DX003 (ip), vehicle: saline 104 % of control | dose: 200.0 mg/kg/injection, schedule: Q04DX003 (ip), vehicle: saline 98 % of control and 108 % of control

O=C(Nc1ccccc1C(F)(F)F)C(c1ccccc1)c1ccccc1
inactive: [5] 93 % of control | [12] 96 % of control | [7] 88 % of control | [13] 96 % of control | [8] 90 % of control | [14] 95 % of control

CN(C)CC(C(=O)c1ccc(Br)cc1)C(Br)c1ccccc1 (stereo not drawn)
inactive: dose: 0.78 mg/kg/injection, schedule: Q01DX009 (ip), vehicle: saline 94 % of control | dose: 1.56 mg/kg/injection, schedule: Q01DX009 (ip), vehicle: saline 92 % of control | dose: 3.12 mg/kg/injection, schedule: Q01DX009 (ip), vehicle: saline 97 % of control | dose: 12.5 mg/kg/injection, schedule: Q04DX003 (ip), vehicle: saline with Tween-80 95 % of control | dose: 25.0 mg/kg/injection, schedule: Q04DX003 (ip), vehicle: saline with Tween-80 91 % of control

CN(N=O)C(=O)Nc1cccc2cccnc12
inactive: dose: 6.25 mg/kg/injection, schedule: Q01DX Z (ip), vehicle: carboxymethylcellulose (CMC) 101 % of control | dose: 12.5 mg/kg/injection, schedule: Q01DX Z (ip), vehicle: carboxymethylcellulose (CMC) 106 % of control | dose: 25.0 mg/kg/injection, schedule: Q01DX Z (ip), vehicle: carboxymethylcellulose (CMC) 124 % of control
